Reference: patent publication US20130211215A1, “HYPEROSMOTIC PREPARATIONS COMPRISING 5-AMINOLEVULINIC ACID OR DERIVATIVE AS PHOTOSENSITIZING AGENT” (Photocure ASA, priority 2010, published 2013)

Experiments:
[1] = parameters: species or system mice; settings: C3.Cg/TifBomTac-hr (hairless), mouse, in vivo
Procedure: (§1) The purpose of this study was to investigate the effect of adding sorbitol to an enema formulation containing 20 mM ALA hexylester in an attempt to reduce the systemic uptake of the photosensitizer. It was discovered in pilot experiments that sorbitol at concentrations above 300 mM gave diarrhea. Therefore, the effect of 300 mM sorbitol in 0.9% NaCl (600 mOsmol/l) was investigated by comparing the skin fluorescence in two mice that were given 20 mM ALA hexylester (in 0.9% NaCl) with the skin fluorescence in two mice that had received 20 mM ALA hexylester and 300 mM sorbitol. The osmolarities of these solutions are outlined below. • 1. 20 mM ALA hexylester in 0.9% NaCl: (40+300) mOsmol/l=340 mOsmol/l • 2. 20 mM ALA hexylester and 300 mM sorbitol in 0.9% NaCl: (40+300+300) mOsmol/l=640 mOsmol/l (hypertonic preparation)

[2] = Systemic uptake from the colon assessed as PpIX skin fluorescence after colonic instillation; format: in vivo, hairless mice (C3.Cg/TifBomTac-hr)
Procedure: Experiments were performed in hairless mice weighing 20 g (C3.Cg/TifBomTac-hr). […] The animals were fasted for 24 hours but with free access to water before the experiment. Prior to administration of the test preparation, the mice were anaesthetised with Hypnorm/Dormicum. This was also repeated every second hour.
When ALA hexylester is administered sytemically, it induces PpIX formation in the entire body. The systemic uptake of ALA hexylester after colonic administration was therefore assessed as skin fluorescence. To assess the PpIX skin fluorescence, the mice were photographed using a fluorescence camera (Medeikonos PDD/PDT, Medeikonos AB, Gothenburg, Sweden) at excitation wavelengths of 365 and 405 nm and 2 sec illumination time. Each photo was calibrated to a fluorescence standard (Uranyl Standard, J&M, Analytische Mess and Regeltecknik, GmbH, Hamburg, Germany) and adjusted for background fluorescence. The mean amount of PpIX fluorescence in each image was calculated by means of image analyzer-software (MatLab 7.2.0.232, Math-Works, Natick, Mass., USA).
All dilutions were performed in 0.9% NaCl (150 mM=300 mOsmol/l). For the colon instillation, a 1000 μl micropipette with a plastic tip was used. […] In all experiments, instillation lasted until the experiment was finished (approx. 5 hours).
Increasing doses (8 to 40 mM ALA hexylester) were given by anal administration to mice and the resulting skin fluorescence measured as described. […] The resulting systemic fraction was proportional to the concentration of ALA hexylester in the enema.
The ALA hexylester was dissolved as the corresponding hydrochloride salt. 20 mM ALA hexylester constitutes an osmolarity of approx. 40 mOsmol/l.
as §1

[3] = Absorption from the colon after enema (pharmacokinetic studies with 14C-labelled agents, HAL enema studies); format: in vivo; settings: enema preparations
Text: Such high systemic uptake of photosensitizer may constitute a safety issue for the patient due to the high dosage of agent circulating within the bloodstream.

[4] = Osmolarity of preparations; format: physicochemical; settings: calculated from concentrations
Text: An osmometer may be used to determine the osmolarity of a solution. There are several different techniques employed in osmometry; vapour pressure depression osmometers determine the concentration of osmotically active particles that reduce the vapour pressure of a solution; membrane osmometers measure the osmotic pressure of a solution separated from pure solvent by a semi-permeable membrane; and freezing point depression osmometers are used to determine the osmotic strength of a solution (since osmotically active compounds depress the freezing point of a solution). Osmolarity may be measured using a vapour pressure osmometer such as that supplied by ELITech Group (Vapro 5600 vapour pressure osmometer). Where reference is made herein to specific values for osmolarity, these values may be determined using such apparatus operated under standard temperature and pressure conditions.
The osmolarity of small molecules can normally be calculated from their concentration in solution. For example, in the case of simple salts such as NaCl: 0.9% NaCl=150 mM. NaCl is fully dissociated in water and both Na^+ and Cl^− contribute to the osmolarity (i.e. each mole of NaCl becomes two osmoles in solution, one mole of Na^+ and one mole of Cl^−). The osmolarity is therefore 150 mM×2=300 mOsmol/l. […]

[5] = tested on: pre-malignant conditions in the colon; settings: enema, 200 mg in 500 ml or 1000 ml phosphate buffered saline; Mayinger et al. 2008; cited from earlier work

**Q.** With `OC[C@@H](O)[C@@H](O)[C@H](O)[C@@H](O)CO` [sorbitol] as the compound, how does the “sorbitol concentration that gave diarrhea” value [1] read?
**A.** Its value is “above 300 mM”.

**Q.** Which skin fluorescence ([2]; 8 mM ALA hexylester (concentration used clinically), colonic instillation 0.6 ml in 0.9% NaCl, FIG. 1) does the source give for `CCCCCCOC(=O)CCC(=O)CN` [ALA hexylester, 5-aminolevulinic acid hexyl ester] here?
**A.** The skin fluorescence was “no skin fluorescence”.

**Q.** What about the skin fluorescence ([2]; 20 mM ALA hexyl ester, colonic administration) of the same compound?
**A.** The skin fluorescence was “reasonable levels of skin sensitivity”.

**Q.** What about the “relationship between concentration in the enema and resulting skin fluorescence” value ([2]; 8 to 40 mM, anal administration, FIG. 1) of the same compound?
**A.** Its value is “clear dose-response relationship”.

**Q.** And the “concentration of ALA hexylester appearing saturating for skin fluorescence” value ([2]; colonic instillation 0.6 ml in 0.9% NaCl, FIG. 1)?
**A.** The value was at least 30000 µM.

**Q.** And the “absorption of the active photosensitizing agent in the colon” value [3]?
**A.** Its value is “absorption of a significant amount”.

**Q.** And the osmolarity [4]?
**A.** Its osmolarity is “approx. 40 mOsmol/l”.

**Q.** What about the “more polyps detected by PDD than with white light endoscopic imaging” value [5] of the same compound?
**A.** The value was 28%.
